Measured values published in PubChem BioAssay AID1963870 (Molecular Pharmacology Branch, DTP, NCI, 2024).
pIC50: −log10 of the molar value.

System: 292921-168-R-J2-PDC KRAS tumor spheroid viability
Test: Anticancer human tumor 292921-168-R-J2-PDC patient-derived pancreatic carcinoma cell line growth inhibition [KRAS2]
Details: spheroids with HUVEC and MSC; for pIC50: curve of first compound; for viability, T/C: stronger effect = lower value
In short: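 KRAS-mutant tumor cells were grown as spheroids with HUVEC endothelial cells and human MSCs as stroma. Targeted agents were tested alone and with KRAS pathway inhibitors. Doses started at or near clinical Cmax, or 10 microM, descending half-log.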

[1] = second compound 0.1 µM, first compound 0.0316 µM
[2] = second compound 0.1 µM, first compound 0.1 µM
[3] = second compound 0.1 µM, first compound 0.316 µM
[4] = second compound 0.1 µM, first compound 1 µM
[5] = second compound 0.1 µM, first compound 3.16 µM
[6] = second compound 0.1 µM, first compound 10 µM
[7] = second compound 0.316 µM, first compound 0.0316 µM
[8] = second compound 0.316 µM, first compound 0.1 µM
[9] = second compound 0.316 µM, first compound 0.316 µM
[10] = second compound 0.316 µM, first compound 1 µM
[11] = second compound 0.316 µM, first compound 3.16 µM
[12] = second compound 0.316 µM, first compound 10 µM
[13] = second compound 1 µM, first compound 0.0316 µM
[14] = second compound 1 µM, first compound 0.1 µM
[15] = second compound 1 µM, first compound 0.316 µM
[16] = second compound 1 µM, first compound 1 µM
[17] = second compound 1 µM, first compound 3.16 µM
[18] = second compound 1 µM, first compound 10 µM
[19] = second compound 3.16 µM, first compound 0.0316 µM
[20] = second compound 3.16 µM, first compound 0.1 µM
[21] = second compound 3.16 µM, first compound 0.316 µM
[22] = second compound 3.16 µM, first compound 1 µM
[23] = second compound 3.16 µM, first compound 3.16 µM
[24] = second compound 3.16 µM, first compound 10 µM
[25] = second compound 10 µM, first compound 0.0316 µM
[26] = second compound 10 µM, first compound 0.1 µM
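Also: drug exposure lasted seven days after spheroids formed for three days.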
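For viability, T/C in this document: percent of DMSO vehicle control viability which is 100%.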

Question: How did the pIC50 (second compound 0.0316 µM) turn out when `O=C(c1cc(Cc2n[nH]c(=O)c3ccccc23)ccc1F)N1CCN(C(=O)C2CC2)CC1` + C=CC(=O)N1CCN(c2nc(OCC3CCCN3C)nc3c2CCN(c2cccc4cccc(C)c24)C3)CC1CC#N was run?
Answer: 5.25

Question: And the pIC50 (second compound 0.1 µM)?
Answer: 5.21

Question: And the pIC50 (second compound 0.316 µM)?
Answer: 5.45

Question: What about the pIC50 (second compound 1 µM) of the same molecule?
Answer: > 7.50

Question: What about the pIC50 (second compound 3.16 µM) of the same molecule?
Answer: > 7.50

Question: And the viability, T/C (second compound 0.0316 µM, first compound 0.0316 µM)?
Answer: 102%

Question: And the viability, T/C (second compound 0.0316 µM, first compound 0.1 µM)?
Answer: 101%

Question: What about the viability, T/C (second compound 0.0316 µM, first compound 0.316 µM) of the same molecule?
Answer: 102%

Question: And the viability, T/C (second compound 0.0316 µM, first compound 1 µM)?
Answer: 85.1%

Question: And the viability, T/C (second compound 0.0316 µM, first compound 3.16 µM)?
Answer: 62%

Question: What about the viability, T/C (second compound 0.0316 µM, first compound 10 µM) of the same molecule?
Answer: 38.8%

Question: What about the viability, T/C [1] of the same molecule?
Answer: 88.3%

Question: And the viability, T/C [2]?
Answer: 68.2%

Question: And the viability, T/C [3]?
Answer: 84.5%

Question: And the viability, T/C [4]?
Answer: 75.6%

Question: What about the viability, T/C [5] of the same molecule?
Answer: 68.5%

Question: And the viability, T/C [6]?
Answer: 36.3%

Question: What about the viability, T/C [7] of the same molecule?
Answer: 50.5%

Question: And the viability, T/C [8]?
Answer: 56.1%

Question: What about the viability, T/C [9] of the same molecule?
Answer: 55.2%

Question: And the viability, T/C [10]?
Answer: 62.7%

Question: What about the viability, T/C [11] of the same molecule?
Answer: 50.2%

Question: And the viability, T/C [12]?
Answer: 30.8%

Question: What about the viability, T/C [13] of the same molecule?
Answer: 42.9%

Question: And the viability, T/C [14]?
Answer: 43.5%

Question: And the viability, T/C [15]?
Answer: 38.1%

Question: And the viability, T/C [16]?
Answer: 34.3%

Question: And the viability, T/C [17]?
Answer: 43.3%

Question: And the viability, T/C [18]?
Answer: 19.7%

Question: And the viability, T/C [19]?
Answer: 0.21%

Question: And the viability, T/C [20]?
Answer: 0.17%

Question: And the viability, T/C [21]?
Answer: 0.19%

Question: And the viability, T/C [22]?
Answer: 0.49%

Question: What about the viability, T/C [23] of the same molecule?
Answer: 0.32%

Question: What about the viability, T/C [24] of the same molecule?
Answer: 0.25%

Question: `Cn1ncnc1[C@H]1c2n[nH]c(=O)c3cc(F)cc(c23)N[C@@H]1c1ccc(F)cc1` + COc1cc2nc(C)nc(NC(C)c3cc(N)cc(C(F)(F)F)c3)c2cc1OC1CCOC1 was tested. Which pIC50 (second compound 0.1 µM) did it give?
Answer: < 7.00

Question: And the pIC50 (second compound 0.316 µM)?
Answer: < 7.00

Question: And the pIC50 (second compound 1 µM)?
Answer: < 7.00

Question: What about the pIC50 (second compound 3.16 µM) of the same molecule?
Answer: 7.43

Question: And the pIC50 (second compound 10 µM)?
Answer: > 9.50

Question: What about the viability, T/C (second compound 0.1 µM, first compound 0.000316 µM) of the same molecule?
Answer: 93.5%

Question: And the viability, T/C (second compound 0.1 µM, first compound 0.001 µM)?
Answer: 92.1%

Question: And the viability, T/C (second compound 0.1 µM, first compound 0.00316 µM)?
Answer: 85.8%

Question: And the viability, T/C (second compound 0.1 µM, first compound 0.01 µM)?
Answer: 85.7%

Question: What about the viability, T/C [1] of the same molecule?
Answer: 68.6%

Question: What about the viability, T/C [2] of the same molecule?
Answer: 60.5%

Question: And the viability, T/C (second compound 0.316 µM, first compound 0.000316 µM)?
Answer: 84.2%

Question: What about the viability, T/C (second compound 0.316 µM, first compound 0.001 µM) of the same molecule?
Answer: 87%

Question: What about the viability, T/C (second compound 0.316 µM, first compound 0.00316 µM) of the same molecule?
Answer: 84.8%

Question: And the viability, T/C (second compound 0.316 µM, first compound 0.01 µM)?
Answer: 84.4%

Question: And the viability, T/C [7]?
Answer: 70.3%

Question: And the viability, T/C [8]?
Answer: 64.3%

Question: And the viability, T/C (second compound 1 µM, first compound 0.000316 µM)?
Answer: 84%

Question: What about the viability, T/C (second compound 1 µM, first compound 0.001 µM) of the same molecule?
Answer: 84.9%

Question: What about the viability, T/C (second compound 1 µM, first compound 0.00316 µM) of the same molecule?
Answer: 74.9%

Question: What about the viability, T/C (second compound 1 µM, first compound 0.01 µM) of the same molecule?
Answer: 73.3%

Question: And the viability, T/C [13]?
Answer: 69.6%

Question: What about the viability, T/C [14] of the same molecule?
Answer: 57.4%

Question: And the viability, T/C (second compound 3.16 µM, first compound 0.000316 µM)?
Answer: 63.5%

Question: What about the viability, T/C (second compound 3.16 µM, first compound 0.001 µM) of the same molecule?
Answer: 60.1%

Question: And the viability, T/C (second compound 3.16 µM, first compound 0.00316 µM)?
Answer: 56.4%

Question: And the viability, T/C (second compound 3.16 µM, first compound 0.01 µM)?
Answer: 57.7%

Question: What about the viability, T/C [19] of the same molecule?
Answer: 52.1%

Question: And the viability, T/C [20]?
Answer: 42%

Question: And the viability, T/C (second compound 10 µM, first compound 0.000316 µM)?
Answer: 26.1%

Question: And the viability, T/C (second compound 10 µM, first compound 0.001 µM)?
Answer: 27.6%

Question: What about the viability, T/C (second compound 10 µM, first compound 0.00316 µM) of the same molecule?
Answer: 30.6%

Question: What about the viability, T/C (second compound 10 µM, first compound 0.01 µM) of the same molecule?
Answer: 22.6%

Question: What about the viability, T/C [25] of the same molecule?
Answer: 23.6%

Question: And the viability, T/C [26]?
Answer: 23.9%

Question: How did the pIC50 (second compound 0.1 µM) turn out when `CC(C)NCC(C(=O)N1CCN(c2ncnc3c2C(C)CC3O)CC1)c1ccc(Cl)cc1` (stereo not given) + CNCc1ccccc1-c1csc(C(C)Nc2nc(C)nc3cc(OC)c(OC)cc23)c1 was run?
Answer: 5.15

Question: What about the pIC50 (second compound 0.316 µM) of the same molecule?
Answer: 5.29

Question: What about the pIC50 (second compound 1 µM) of the same molecule?
Answer: 6.22

Question: What about the pIC50 (second compound 3.16 µM) of the same molecule?
Answer: > 7.50

Question: What about the pIC50 (second compound 10 µM) of the same molecule?
Answer: > 7.50

Question: What about the viability, T/C [1] of the same molecule?
Answer: 80.5%

Question: And the viability, T/C [2]?
Answer: 88.9%

Question: And the viability, T/C [3]?
Answer: 74.1%

Question: And the viability, T/C [4]?
Answer: 77.3%

Question: And the viability, T/C [5]?
Answer: 67.8%

Question: What about the viability, T/C [6] of the same molecule?
Answer: 42.5%

Question: What about the viability, T/C [7] of the same molecule?
Answer: 76.9%

Question: And the viability, T/C [8]?
Answer: 70.6%

Question: What about the viability, T/C [9] of the same molecule?
Answer: 65.1%

Question: What about the viability, T/C [10] of the same molecule?
Answer: 65.4%

Question: What about the viability, T/C [11] of the same molecule?
Answer: 62.6%

Question: What about the viability, T/C [12] of the same molecule?
Answer: 35.6%

Question: And the viability, T/C [13]?
Answer: 59.9%

Question: And the viability, T/C [14]?
Answer: 55.4%

Question: What about the viability, T/C [15] of the same molecule?
Answer: 49.5%

Question: What about the viability, T/C [16] of the same molecule?
Answer: 46.7%

Question: What about the viability, T/C [17] of the same molecule?
Answer: 42.2%

Question: And the viability, T/C [18]?
Answer: 22.9%

Question: And the viability, T/C [19]?
Answer: 0.1%

Question: What about the viability, T/C [20] of the same molecule?
Answer: 0.09%

Question: What about the viability, T/C [21] of the same molecule?
Answer: 0.37%

Question: What about the viability, T/C [22] of the same molecule?
Answer: 0.1%

Question: What about the viability, T/C [23] of the same molecule?
Answer: 0.07%

Question: And the viability, T/C [24]?
Answer: 0.36%

Question: What about the viability, T/C [25] of the same molecule?
Answer: 0.09%

Question: And the viability, T/C [26]?
Answer: 0.08%

Question: What about the viability, T/C (second compound 10 µM, first compound 0.316 µM) of the same molecule?
Answer: 0.25%

Question: What about the viability, T/C (second compound 10 µM, first compound 1 µM) of the same molecule?
Answer: 0.36%

Question: And the viability, T/C (second compound 10 µM, first compound 3.16 µM)?
Answer: 0.09%

Question: And the viability, T/C (second compound 10 µM, first compound 10 µM)?
Answer: 0.3%
